Data from paper PMC6524873 (TH Open: Companion Journal to Thrombosis and Haemostasis, 2018).

Legend:
human plasma [1] = assay: Prothrombin time (PT) in pooled normal human plasma; format: biochemical; conditions: up to 1,100 ng/mL
Procedure: (§1) The ranges of inhibitor concentrations were chosen to encompass the peak and trough plasma levels measured in patients treated with these agents. [26] The PT was performed using HemosIL HS PLUS (Instrumentation Laboratory, Lexington, Massachusetts, United States) on an ACL 7000 coagulometer (Instrumentation Laboratory) according to the manufacturer's instructions. The aPTT was performed using Actin FSL reagent (Siemens, Marburg, Germany) on a BCS XP analyzer (Siemens) according to the manufacturer's instructions. Assays were performed three times in duplicate at 37 ° C. These PT and aPTT reagents were chosen because of their wide availability and their reported sensitivities to rivaroxaban and apixaban. [27]

[2] = tested on: thrombin generation in plasma; assay: Plasma-based calibrated thrombin generation assay; format: biochemical, human; conditions: 3 pM tissue factor, concentration-dependent
human plasma [3] = assay: Activated partial thromboplastin time (aPTT) in pooled normal human plasma; format: biochemical; conditions: up to 1,100 ng/mL
Procedure: as §1

[4] = molecular target: T1, factor Xa incorporated in prothrombinase (Homo sapiens, UniProt P00742); assay: Rate constants of inhibition of prothrombinase with rMZ as substrate (meizothrombin-DAPA fluorescence); conditions: 37°C
T1 sequence (P00742 41-179 limits assumed): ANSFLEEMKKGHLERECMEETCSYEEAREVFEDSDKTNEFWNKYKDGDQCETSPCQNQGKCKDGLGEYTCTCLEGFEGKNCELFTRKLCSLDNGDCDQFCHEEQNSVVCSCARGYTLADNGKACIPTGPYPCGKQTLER
T1 sequence (P00742 235-488 limits assumed): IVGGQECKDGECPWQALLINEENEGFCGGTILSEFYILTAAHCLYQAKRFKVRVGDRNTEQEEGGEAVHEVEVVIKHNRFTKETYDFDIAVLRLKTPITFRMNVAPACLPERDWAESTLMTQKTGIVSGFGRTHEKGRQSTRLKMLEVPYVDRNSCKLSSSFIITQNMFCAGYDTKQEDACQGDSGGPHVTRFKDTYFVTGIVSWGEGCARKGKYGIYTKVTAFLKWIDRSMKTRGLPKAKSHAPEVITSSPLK
T1 sequence (P12259 29-737 partner limits assumed): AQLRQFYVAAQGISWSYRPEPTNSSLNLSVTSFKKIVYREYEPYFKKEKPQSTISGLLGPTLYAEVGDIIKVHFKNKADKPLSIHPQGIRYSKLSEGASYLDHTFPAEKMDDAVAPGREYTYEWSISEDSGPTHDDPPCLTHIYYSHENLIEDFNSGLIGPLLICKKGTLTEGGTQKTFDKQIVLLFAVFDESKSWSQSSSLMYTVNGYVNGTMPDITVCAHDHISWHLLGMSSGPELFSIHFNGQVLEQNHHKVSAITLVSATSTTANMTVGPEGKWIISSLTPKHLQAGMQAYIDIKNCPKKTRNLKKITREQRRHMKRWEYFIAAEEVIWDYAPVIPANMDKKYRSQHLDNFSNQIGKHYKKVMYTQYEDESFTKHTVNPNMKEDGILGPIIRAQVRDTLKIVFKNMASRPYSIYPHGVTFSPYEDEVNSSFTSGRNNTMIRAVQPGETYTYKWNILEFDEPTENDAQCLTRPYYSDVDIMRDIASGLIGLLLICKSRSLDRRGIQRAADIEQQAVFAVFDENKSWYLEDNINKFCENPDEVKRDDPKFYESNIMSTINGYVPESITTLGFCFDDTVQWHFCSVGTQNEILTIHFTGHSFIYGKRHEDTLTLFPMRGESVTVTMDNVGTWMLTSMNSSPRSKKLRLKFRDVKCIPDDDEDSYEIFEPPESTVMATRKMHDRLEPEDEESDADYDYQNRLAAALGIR
T1 sequence (P12259 1574-2224 partner limits assumed): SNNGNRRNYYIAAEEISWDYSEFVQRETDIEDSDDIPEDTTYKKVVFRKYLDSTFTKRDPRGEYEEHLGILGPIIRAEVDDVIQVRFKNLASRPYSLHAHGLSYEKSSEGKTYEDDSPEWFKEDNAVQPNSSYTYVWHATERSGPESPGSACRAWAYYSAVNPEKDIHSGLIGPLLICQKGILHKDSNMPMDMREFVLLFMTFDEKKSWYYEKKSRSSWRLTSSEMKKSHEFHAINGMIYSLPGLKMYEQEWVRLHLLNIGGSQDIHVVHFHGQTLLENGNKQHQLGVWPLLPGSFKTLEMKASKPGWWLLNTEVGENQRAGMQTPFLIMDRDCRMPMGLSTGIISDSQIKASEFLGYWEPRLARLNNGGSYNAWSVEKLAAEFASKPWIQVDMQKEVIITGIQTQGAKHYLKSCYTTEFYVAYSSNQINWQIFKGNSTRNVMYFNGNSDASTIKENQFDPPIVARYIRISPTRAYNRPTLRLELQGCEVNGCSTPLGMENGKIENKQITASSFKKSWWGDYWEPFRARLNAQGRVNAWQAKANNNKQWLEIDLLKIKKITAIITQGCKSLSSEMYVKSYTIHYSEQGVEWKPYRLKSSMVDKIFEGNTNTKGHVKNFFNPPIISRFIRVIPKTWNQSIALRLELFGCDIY

[5] = molecular target: factor Xa incorporated into the prothrombinase complex (Homo sapiens, UniProt P00742); assay: Factor Xa chromogenic activity in the presence of factor Va, PCPS and prothrombin (hirudin added); conditions: dose-dependent, data not shown
Chain of factor Xa incorporated into the prothrombinase complex (P00742 41-179 limits assumed): as the sequence (P00742 41-179 limits assumed) above
Chain of factor Xa incorporated into the prothrombinase complex (P00742 235-488 limits assumed): as the sequence (P00742 235-488 limits assumed) above
Chain of factor Xa incorporated into the prothrombinase complex (P12259 29-737 partner limits assumed): as the sequence (P12259 29-737 partner limits assumed) above
Chain of factor Xa incorporated into the prothrombinase complex (P12259 1574-2224 partner limits assumed): as the sequence (P12259 1574-2224 partner limits assumed) above

[6] = molecular target: T1, factor Xa incorporated in prothrombinase; assay: Rate constants of inhibition of factor Xa in prothrombinase (prothrombin activation, thrombin-DAPA fluorescence, Scheme 2)
factor Xa [7] = molecular target: T2, factor Xa (Homo sapiens, UniProt P00742); assay: Rate constants of inhibition of factor Xa (Pefafluor Xa, mixed inhibition model, Scheme 1); format: biochemical; set-up: factor Xa and thrombin were purchased from Enzyme Research Laboratories; purchased Enzyme Research Laboratories (South Bend, IN)
T2 sequence (P00742 41-179 limits assumed): as the sequence (P00742 41-179 limits assumed) above
T2 sequence (P00742 235-488 limits assumed): as the sequence (P00742 235-488 limits assumed) above

factor Xa [8] = molecular target: T2, factor Xa; assay: biochemical; conditions: read-out: inhibition of factor Xa chromogenic activity
[9] = 37°C, prothrombinase in complex with either form of meizothrombin
[10] = 37°C, prothrombinase in complex with prothrombin
[11] = prothrombin substrate, 37°C, prothrombinase without prothrombin
[12] = 37°C, […] inhibitor, 100 µM Pefafluor Xa, […] factor Xa

## COc1ccc(-n2nc(C(N)=O)c3c2C(=O)N(c2ccc(N4CCCCC4=O)cc2)CC3)cc1 [Apixaban, 1-(4-methoxyphenyl)-7-oxo-6-(4-(2-oxopiperidin-1-yl)phenyl)-4,5,6,7-tetrahydro-1H-pyrazolo[3,4-c]pyridine-3-carboxamide]
Human plasma [1]
  effect on the PT: prolonged the PT and aPTT in a concentration-dependent manner
[2]
  effect on endogenous thrombin potential (ETP): decreased endogenous thrombin potential (ETP)
  effect on lag time: prolonged the lag time
Human plasma [3]
  effect on the aPTT: prolonged the PT and aPTT in a concentration-dependent manner

## O=C(NC[C@H]1CN(c2ccc(N3CCOCC3=O)cc2)C(=O)O1)c1ccc(Cl)s1 [Rivaroxaban, 5-chloro-N-((5S)-2-oxo-3-[4-(3-oxomorpholin-4-yl)phenyl]-1,3-oxazolidin-5-ylmethyl)thiophene-2-carboxamide]
[4]; free prothrombinase
  ji 1, off-rate, E + I ⇔ E · I: (2.15 ± 0.18) × 10 ^−3 s ^−1
  ki 1, on-rate, E + I ⇔ E · I: (3.46 ± 0.49) × 10 ^−2 nM ^−1 ·s ^−1
[4]; prothrombinase-rMZ complex
  ji 2, off-rate, E · rMZ + I ⇔ E · rMZ · I: (1.23 ± 0.08) × 10 ^−4 s ^−1
  ki 2, on-rate, E · rMZ + I ⇔ E · rMZ · I: (6.41 ± 0.44) × 10 ^−3 nM ^−1 ·s ^−1
Human plasma [1]
  effect on the PT: prolonged the PT and aPTT in a concentration-dependent manner
[5]
  inhibition of factor Xa chromogenic activity in the presence of prothrombinase components: over 95%
[6]; [9]
  ji 3, off-rate, E · M + I ⇔ E · M · I or E · M2 + I ⇔ E · M2 · I: (2.95 ± 0.11) × 10 ^−3 s ^−1
  ki 3, on-rate, E · M + I ⇔ E · M · I or E · M2 + I ⇔ E · M2 · I: (2.37 ± 0.22) × 10 ^−3 nM ^−1 ·s ^−1
[6]; [10]
  ji 2, off-rate, E · P + I ⇔ E · P · I: (1.12 ± 0.15) × 10 ^−2 s ^−1
  ki 2, on-rate, E · P + I ⇔ E · P · I: (1.24 ± 0.02) × 10 ^−2 nM ^−1 ·s ^−1
[6]; free enzyme inhibition, prothrombin substrate
  K Pase1, lower than apixaban: 454 fold
[6]; free factor Xa or factor Xa incorporated into the prothrombinase complex
  dissociation rates, faster than apixaban: about 3 fold
[6]; [11]
  ji 1, off-rate, E + I ⇔ E · I: (1.31 ± 0.11) × 10 ^−3 s ^−1
  ki 1, on-rate, E + I ⇔ E · I: (5.38 ± 0.35) × 10 ^−3 nM ^−1 ·s ^−1
[6]; rivaroxaban slower than apixaban
  ki 3 on-rate with prothrombinase-meizothrombin complex, slower than apixaban: 3 fold
[2]
  effect on endogenous thrombin potential (ETP): decreased endogenous thrombin potential (ETP)
  effect on lag time: prolonged the lag time
  effect on peak thrombin concentration: reduced peak thrombin concentration
Factor Xa [7]; [12]
  j 3, off-rate, free factor Xa: (3.21 ± 0.28) × 10 ^−2 s ^−1
  j 4, off-rate, factor Xa-substrate complex: (2.01 ± 0.17) × 10 ^−2 s ^−1
  k 3, on-rate, free factor Xa: (3.77 ± 0.32) × 10 ^−2 nM ^−1 ·s ^−1
  k 4, on-rate, factor Xa-substrate complex: (1.34 ± 0.04) × 10 ^−2 nM ^−1 ·s ^−1
Factor Xa [7]; average of k3 and j3 ratios
  on- and off-rate constants for binding factor Xa alone (k 3 and j 3), on average faster than apixaban: 21 fold
Factor Xa [7]; average of k4 and j4 ratios
  binding to the factor Xa-fluorogenic substrate complex (k 4 and j 4), on average faster than apixaban: 25 fold
Factor Xa [7]; kinetic measurements, p < 0.001
  rate of factor Xa inhibition, faster than apixaban: up to 4 fold
Human plasma [3]
  effect on the aPTT: prolonged the PT and aPTT in a concentration-dependent manner
Factor Xa [8]
  inhibition at 0.02 µM: ~85%
